Reference: ChEMBL document CHEMBL2029260, “Structural basis of selective inhibition of human tankyrases” (J Med Chem, 2012)

Target: T1, Poly [ADP-ribose] polymerase tankyrase-2 (Homo sapiens, UniProt Q9H2K2)
T1 sequence (Q9H2K2 whole entry): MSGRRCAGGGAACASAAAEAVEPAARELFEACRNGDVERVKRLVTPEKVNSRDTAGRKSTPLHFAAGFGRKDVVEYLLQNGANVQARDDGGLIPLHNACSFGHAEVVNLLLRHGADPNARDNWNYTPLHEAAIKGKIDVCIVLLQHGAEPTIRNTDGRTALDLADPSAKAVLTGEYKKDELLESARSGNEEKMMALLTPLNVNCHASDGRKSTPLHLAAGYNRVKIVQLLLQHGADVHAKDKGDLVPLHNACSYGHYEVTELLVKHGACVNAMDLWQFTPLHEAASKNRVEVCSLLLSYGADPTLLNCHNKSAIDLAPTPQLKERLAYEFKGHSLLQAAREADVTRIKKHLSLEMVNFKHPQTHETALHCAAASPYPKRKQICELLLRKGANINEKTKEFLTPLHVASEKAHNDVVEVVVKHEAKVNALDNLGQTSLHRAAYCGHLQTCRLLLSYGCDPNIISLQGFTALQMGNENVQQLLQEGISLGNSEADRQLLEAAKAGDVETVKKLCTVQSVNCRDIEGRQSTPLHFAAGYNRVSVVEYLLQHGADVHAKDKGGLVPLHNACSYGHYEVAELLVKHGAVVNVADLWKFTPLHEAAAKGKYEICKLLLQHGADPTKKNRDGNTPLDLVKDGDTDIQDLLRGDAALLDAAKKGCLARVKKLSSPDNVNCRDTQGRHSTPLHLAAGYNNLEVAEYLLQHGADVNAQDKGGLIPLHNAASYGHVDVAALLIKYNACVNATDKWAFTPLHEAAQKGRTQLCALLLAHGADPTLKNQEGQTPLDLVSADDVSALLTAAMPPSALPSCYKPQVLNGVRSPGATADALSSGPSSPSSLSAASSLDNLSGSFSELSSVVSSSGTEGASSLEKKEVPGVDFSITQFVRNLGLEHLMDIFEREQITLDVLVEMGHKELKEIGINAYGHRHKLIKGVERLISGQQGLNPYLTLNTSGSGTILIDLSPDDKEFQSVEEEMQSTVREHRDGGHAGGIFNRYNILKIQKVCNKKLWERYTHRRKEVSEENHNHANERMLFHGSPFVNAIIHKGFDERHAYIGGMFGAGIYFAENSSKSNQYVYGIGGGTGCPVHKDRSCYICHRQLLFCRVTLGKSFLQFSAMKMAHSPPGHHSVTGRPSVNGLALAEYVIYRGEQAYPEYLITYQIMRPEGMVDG
Test: Activity of N-terminus hexaHis-tagged human TNSK2 expressed in Escherichia coli BL21 (DE3) cells using biotinylated NAD+ as substrate after 90 mins by Western blot analysis

Work on `O=C(Nc1ccccc1)c1ccc(N2C(=O)[C@@H]3[C@H](C2=O)[C@@H]2C=C[C@H]3C2)cc1` yielded an EC50 of over 25 µM.
For `CO[C@H]1CCCC[C@@H]1NC(=O)c1ccc(N2C(=O)[C@@H]3[C@H](C2=O)[C@@H]2C=C[C@H]3C2)cc1`, the EC50 was 2 µM.
Compound `O=C(Nc1ccc(Br)cc1)c1ccc(N2C(=O)[C@@H]3[C@H](C2=O)[C@@H]2C=C[C@H]3C2)cc1` has an EC50 of 1 µM.
In the case of `O=C(NCc1ccncc1)c1ccc(N2C(=O)[C@@H]3[C@H](C2=O)[C@@H]2C=C[C@H]3C2)cc1`, the EC50 is reported as 10 µM.
With `O=C(NCc1ccccc1)c1ccc(N2C(=O)[C@@H]3[C@H](C2=O)[C@@H]2C=C[C@H]3C2)cc1` the EC50 was 20 µM.
Work on `O=C(NC1CCCCC1)c1ccc(N2C(=O)[C@@H]3[C@H](C2=O)[C@@H]2C=C[C@H]3C2)cc1` yielded an EC50 of over 25 µM.
